From the supplement of paper PMC10307832

Legend:
Assay in all cases: relative viability (nuclei count vs DMSO), 5 days (fraction); higher = more cells survive
Vandetanib + Navitoclax = compound: COc1cc2/c(=N/c3ccc(Br)cc3F)nc[nH]c2cc1OCC1CCN(C)CC1 [Vandetanib] + CC1(C)CCC(c2ccc(Cl)cc2)=C(CN2CCN(c3ccc(C(=O)NS(=O)(=O)c4ccc(N[C@H](CCN5CCOCC5)CSc5ccccc5)c(S(=O)(=O)C(F)(F)F)c4)cc3)CC2)C1 [Navitoclax] (partner 0.5 µM)
In short: (§1)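 Lung cancer cell lines were seeded in 1536-well plates and dosed by pin tool the next day, with either a single drug or a fixed anchor-drug dose combined with five library-drug doses (not always all listed) spaced in √10 steps. Five days later, one step fixed the cells and stained their nuclei (final 0.05% Triton X-100, 1% formaldehyde, 1 ug/ml Hoechst), and nuclei were counted on 4× images. Relative viability is the nuclei count in treated wells divided by the count in vehicle wells, and each value is the median of duplicate plates.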

NVP-TAE684 + Bortezomib = compound: COc1cc(N2CCC(N3CCN(C)CC3)CC2)ccc1Nc1ncc(Cl)c(Nc2ccccc2S(=O)(=O)C(C)C)n1 [NVP-TAE684] + CC(C)C[C@H](NC(=O)[C@H](Cc1ccccc1)NC(=O)c1cnccn1)B(O)O [Bortezomib] (partner 0.002 µM)
In short: as §1

CUDC-101 + Navitoclax = compound: C#Cc1cccc(Nc2ncnc3cc(OC)c(OCCCCCCC(=O)NO)cc23)c1 [CUDC-101] + CC1(C)CCC(c2ccc(Cl)cc2)=C(CN2CCN(c3ccc(C(=O)NS(=O)(=O)c4ccc(N[C@H](CCN5CCOCC5)CSc5ccccc5)c(S(=O)(=O)C(F)(F)F)c4)cc3)CC2)C1 [Navitoclax] (partner 0.5 µM)
In short: as §1

CUDC-101 + Luminespib = compound: C#Cc1cccc(Nc2ncnc3cc(OC)c(OCCCCCCC(=O)NO)cc23)c1 [CUDC-101] + CCNC(=O)c1noc(-c2cc(C(C)C)c(O)cc2O)c1-c1ccc(CN2CCOCC2)cc1 [Luminespib] (partner 0.01 µM)
In short: as §1

UMC-11
relative viability (Vandetanib + Navitoclax; first compound 0.02 µM): 0.312 | relative viability (Vandetanib + Navitoclax; first compound 0.06325 µM): 0.311 | relative viability (Vandetanib + Navitoclax; first compound 0.2 µM): 0.286 | relative viability (Vandetanib + Navitoclax; first compound 0.6325 µM): 0.308 | relative viability (Vandetanib + Navitoclax; first compound 2 µM): 0.309 | relative viability (NVP-TAE684 + Bortezomib; first compound 0.2 µM): 0.642 | relative viability (NVP-TAE684 + Bortezomib; first compound 0.6325 µM): 0.97 | relative viability (NVP-TAE684 + Bortezomib; first compound 2 µM): 0.393 | relative viability (CUDC-101 + Navitoclax; first compound 0.01 µM): 0.313 | relative viability (CUDC-101 + Navitoclax; first compound 0.03162 µM): 0.302 | relative viability (CUDC-101 + Navitoclax; first compound 0.1 µM): 0.257 | relative viability (CUDC-101 + Navitoclax; first compound 0.3162 µM): 0.225 | relative viability (CUDC-101 + Navitoclax; first compound 1 µM): 0.0766 | relative viability (CUDC-101 + Luminespib; first compound 0.01 µM): 1.22 | relative viability (CUDC-101 + Luminespib; first compound 0.03162 µM): 0.879 | relative viability (CUDC-101 + Luminespib; first compound 0.1 µM): 1.03 | relative viability (CUDC-101 + Luminespib; first compound 0.3162 µM): 0.43 | relative viability (CUDC-101 + Luminespib; first compound 1 µM): 0.165
